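How tested: cells in 96-well plates exposed to compound for 48 hours at five concentrations. TGI marks complete inhibition of growth.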
Tested on: P388 leukemia
Assay: NCI tumour cell line growth inhibition, 48 h

SMILES: CCSc1nc(COC(=O)NC)c(COC(=O)NC)n1C
- TGI: > 100 µM
